In patent publication US20170107179A1 (Tetraphase Pharmaceuticals, Inc., priority 2010, published 2017):

Key:
E. coli DH10B EC970 TetK = test: MIC, E. coli DH10B recombinantly expressing tetracycline-resistance gene; conditions: arabinose-induced, ampicillin in medium
[1] = tested on: E. coli DH10B EC1083 TetB; test: as above; conditions: arabinose-induced, ampicillin in medium
E. coli DH10B EC969 TetM = test: as above; conditions: arabinose-induced, ampicillin in medium
[2] = tested on: E. coli DH10B EC1082 TetA; test: as above; conditions: arabinose-induced, ampicillin in medium
[3] = tested on: Crl:SKH1-hr hairless mouse; test: In vivo phototoxicity, Crl:SKH1-hr hairless mouse model; conditions: hairless mice, intracutaneous 0.0375 or 0.375 mg/mouse, UVA 20 J/cm^2, observed up to 3 days
Description: To estimate its potential to produce phototoxicity in vivo, Compound 102 was tested in validated in vivo and in vitro models of acute phototoxic activity at Charles River Laboratories (See Spielmann, H., et al., The second ECVAM workshop on phototoxicity testing. The report and recommendations of ECVAM workshop 42. Altern Lab Anim, 2000. 28(6): p. 777-814; and Peters, B. and H. G. Holzhutter, In vitro phototoxicity testing: development and validation of a new concentration response analysis software and biostatistical analyses related to the use of various prediction models. Altern Lab Anim, 2002. 30(4): p. 415-32, the entire teachings of both are incorporated herein by reference).
A vehicle control group was injected with normal saline. The pH of compound formulations was adjusted to 6.5±0.5 prior to injection. Immediately after administration, mice were lightly anesthetized via intraperitoneal injection of chloral hydrate in deionized water and then positioned on plastic tubing with laboratory tape. An aluminum foil mask with a single hole with a diameter of 1.3 cm (1.3 cm^2) was placed over the mid-dorsum injection site before UVA exposure. The distal administration site was shielded from UVA exposure. A UVA dose of no less than 20.0 and no more than 20.1 J/cm^2 at an intensity of 5±1 mW/cm^2 at the level of the mice was delivered during the exposure period. […]

E. coli DH10B EC971 LacZ = test: MIC, E. coli DH10B recombinantly expressing control gene; conditions: E. coli DH10B, arabinose-induced, ampicillin in medium
[4] = tested on: E. coli DH10B EC1153 Tet(X); test: MIC, E. coli DH10B recombinantly expressing tetracycline-resistance gene; conditions: arabinose-induced, ampicillin in medium

CN(C)c1ccc(O)c2c1C[C@H]1C[C@H]3[C@H](N(C)C)C(O)=C(C(N)=O)C(=O)[C@@]3(O)C(O)=C1C2=O [Minocycline, minocycline]
MIC EC970 TetK (E. coli DH10B EC970 TetK): 1
MIC EC1083 TetB [1]: 16
MIC EC969 TetM (E. coli DH10B EC969 TetM): 64
MIC EC1082 TetA [2]: 8
phototoxicity, skin reactions at site of UVA exposure [3]: no skin reaction at either dose
MIC EC971 LacZ (E. coli DH10B EC971 LacZ): 0.5
MIC EC1153 Tet(X) [4]: 4
